These results are taken from patent US20250250303A1 (THE TRUSTEES OF COLUMBIA UNIVERSITY IN THE CITY OF NEW YORK, priority 2022, published 2025).

Bridge positions count the residues as written; N and C are the ends. Ends that are not written are not given here.

A short description of test [1]: Chronic treatment by osmotic minipump. Format: in vivo, mice. From the text: 2-month-old male mice were implanted with osmotic minipump releasing Humulin (0.2 U/day), S597 (0.3 U/day), or S597-S20D (0.3 U/day). […] Hepes, N=7; Humulin, N=8; S597, N=7; S597-S20D, N=4. […] Hepes, N=7; Humulin, N=8; S597, N=9; S597-S20D, N=4. Two-way ANOVA followed by Tukey's multiple comparisons test. […] Mean±SEM. Hepes, N=8; Humulin, N=7; S597, N=9; S597-S20D, N=5. […] Hepes, N=4; Humulin and S597 analogs, N=5. two-tailed Student's t-test. All graphs show Mean±SEM.
To examine the long-term effects of S597 in vivo, C57BL/6J WT mice were implanted with osmotic minipumps releasing either HEPES, Humulin, or mimetics. […] Consistent with previous work, chronic treatment of Humulin increased body weight (FIGS. 11E, 11F).

A short description of test [2]: Insulin tolerance test. Type of test: in vivo, mice. As to conditions: intraperitoneal; for blood glucose levels in ITT: FIGS. 10A, 8F, 8G; for blood glucose in insulin tolerance assays: FIGS. 12B, 12C. On the procedure:
Insulin tolerance tests were performed as described previously with some modification. Briefly, 2-3 months old male mice were fasted for 2 hr. and their blood glucose levels (T=0) were measured with tail bleeding using a glucometer (AlphaTRAK). After then, mice were injected intraperitoneally with Humulin (6 nmol/kg body weight), S597 (9 nmol/kg), S597-S20D (9 nmol/kg), S597-W6A (9 nmol/kg), S597-F27A (9 nmol/kg), or S597-N20 (27 nmol/kg), and their blood glucose levels were measured at the indicated time points after injection.

Test [3] has as its target T1, IR wild-type (WT) (Homo sapiens, UniProt P06213).
T1 construct: expressed in transfected cells; host or cells: 293 FT cells
Description: IR activation (auto-phosphorylation) assay in 293 FT cells expressing IR WT. As to conditions: 293 FT cells expressing IR WT; 10 nM for 10 min. Format: cell-based. On the procedure: The insulin receptor signaling assay was performed as described earlier with some modifications. For the activation assay, the short isoform of human IR in pCS2-MYC was used as described previously. Plasmid transfections into 293 FT cells were performed with Lipofectamin™ 2000 (Invitrogen).
(§1) The cells were incubated with the lysis buffer B [50 mM Hepes pH 7.4, 150 mM NaCl, 10% Glycerol, 1% Triton X-100, 1 mM EDTA, 100 mM sodium fluoride, 2 mM sodium orthovanadate, 20 mM sodium pyrophosphate, 0.5 mM dithiothreitol (DTT), 2 mM phenylmethylsulfonyl fluoride (PMSF)] supplemented with complete Protease Inhibitor Cocktail (Roche), PhosSTOP (Sigma), and 25 U/ml turbo nuclease (Accelagen) on ice for 1 hr. After centrifuge at 20,817 g at 4° C. for 10 min, the concentrations of cell lysate were measured using Micro BCA Protein Assay Kit (Thermo Scientific). About 50-60 μg total proteins were analyzed by SDS-PAGE and quantitative Western blotting. The following antibodies were purchased from commercial sources: Anti-IR-pY1150/1151 (WB, 1:1000; 19H6; labeled as pY IR, Cat. #3024), anti-AKT (WB, 1:1000; 40D4, Cat. #2920), anti-pS473 AKT (WB, 1:1000; D9E, Cat. #4060), anti-ERK1/2 (WB, 1:1000; L34F12, Cat. #4696), anti-pERK1/2 (WB, […]; 197G2, Cat. #4377), anti-IRS1-pS616 (WB, 1:1000; C15H5, Cell Signaling, Cat. #3203); anti-IRS1 (WB, 1:1000; A301-158A, Bethyl Laboratory); anti-IR (WB, 1:500, CT-3, Santa Cruz; labeled as IR for primary hepatocytes and MEFs, Cat. #sc-57342); anti-IR (WB, 1:1000; EPR23566-103; labeled as IR for FIG. 31, ab278100, Abcam); anti-Myc (WB, 1:2000; 9E10, Cat. #11667149001, Roche; labeled as IR for 293 FT cells). For quantitative western blots, anti-rabbit immunoglobulin G (IgG) (H+L) (WB, 1:5000; Dylight 800 conjugates, Cat. #5151) and anti-mouse IgG (H+L) (WB, 1:5000; Dylight 680 conjugates, Cat. #5470) (Cell Signaling) were used as secondary antibodies. The membranes were scanned with the Odyssey Infrared Imaging System (Li—COR, Lincoln, NE).

Test [4] has as its system IR signaling. Nature of the test: IR signaling in primary mouse hepatocytes. Format: cell-based. As for the experimental part:
Primary hepatocytes were isolated from 2-month-old male mice with a standard two-step collagenase perfusion procedure as described earlier with some modifications. […] After 1-2 sec upon appearance of white spots in the liver, the portal vein was cut with scissors to wash out blood, and then the liver was perfused with 30 ml of Liver Digest Medium (Thermo Scientific, Cat. #17703034). Dissected liver was gently washed with low glucose DMEM and transferred to sterile culture dish containing 15 ml Liver Digest Medium. The isolated liver cells were filtered through the 70 μm cell strainer into a 50 ml tube. After centrifuge at 50 g for 5 min at 4° C., cells were washed with cold low glucose DMEM three times. […] After 2 hr., the medium was changed to serum free low-glucose DMEM.
as §1

Test [5] concerns IR signaling. Nature of the test: Insulin signaling in vivo (liver, skeletal muscle, WAT lysates, western blot). As to conditions: WAT; compared to vehicle treated conditions. Further details: species or system mice. As for the experimental part:
2-3 months old male mice were fasted overnight. […] Livers were removed at 3 min after injection. White adipose tissue and skeletal muscles were removed at 5 min and 7 min after injection, respectively. Tissues were mixed with the lysis buffer B supplemented with complete Protease Inhibitor Cocktail (Roche), PhosSTOP (Sigma), and 25 U/ml turbo nuclease (Accelagen), homogenized with FisherbrandTM Bead Mill homogenizer, and then incubated on ice for 1 hr. After centrifuge at 20,817 g at 4° C. for 30 min, the concentrations of cell lysate were measured using Micro BCA Protein Assay Kit (Thermo Scientific). The lysates were then analyzed by quantitative western blotting.
A general note: A western blot detects proteins with antibodies after separation by electrophoresis.

Test [6] relates to C2C12 cells. Description: MTT assay in C2C12 cells. Type of test: cell-based. As for the experimental part: To examine the function of […] on cell viability and growth, an MTT assay was performed in C2C12 cells.
For test [7], the system named is SREBP1. Nature of the test: Immunofluorescence assay for SREBP1 translocation in primary hepatocytes. Type of test: cell-based, mouse. As to conditions: 100 nM for 30 min. On the procedure:
Primary hepatocytes were as described in the primary hepatocyte isolation section. […] Cells were fixed with 4% paraformaldehyde for 10 min. The fixed cells were incubated with PBS for 30 min and 3% BSA in PBS with 0.1% Triton X-100 (0.1% PBST) for 1 hr., and then treated with anti-SREBP1 antibodies (20B12, Millipore, Cat. #MABS1987, 1:200) in 3% BSA in 0.1% PBST at 4° C. overnight. After being washed, cells were incubated with secondary antibodies (Alexa Fluor 488 goat anti-rabbit, Invitrogen, Cat. #A11008, 1:200) for 1 hr. Cells were washed and mounted on microscope slides in ProLong Gold Antifade reagent with DAPI (Invitrogen). Images were acquired as a series of 0.2 μm stacks with a Leica Thunder Imager (Leica Microsystems Inc.). Raw images were deconvolved using LAS X Software (Leica Microsystems Inc.). The nuclear edges and the nuclear SREBP1 signal were defined with Image J. Identical exposure times and magnifications were used for all comparative analyses.

In test [8] the target is T2, full-length mouse insulin receptor, short isoform, D1122N Y962F (mouse, UniProt P15208 28-1372).
T2 construct: mature; Residue numbers are as printed; also called MmIR; IR
T2 sequence (P15208 28-1372 Y989F/D1149N limits assumed): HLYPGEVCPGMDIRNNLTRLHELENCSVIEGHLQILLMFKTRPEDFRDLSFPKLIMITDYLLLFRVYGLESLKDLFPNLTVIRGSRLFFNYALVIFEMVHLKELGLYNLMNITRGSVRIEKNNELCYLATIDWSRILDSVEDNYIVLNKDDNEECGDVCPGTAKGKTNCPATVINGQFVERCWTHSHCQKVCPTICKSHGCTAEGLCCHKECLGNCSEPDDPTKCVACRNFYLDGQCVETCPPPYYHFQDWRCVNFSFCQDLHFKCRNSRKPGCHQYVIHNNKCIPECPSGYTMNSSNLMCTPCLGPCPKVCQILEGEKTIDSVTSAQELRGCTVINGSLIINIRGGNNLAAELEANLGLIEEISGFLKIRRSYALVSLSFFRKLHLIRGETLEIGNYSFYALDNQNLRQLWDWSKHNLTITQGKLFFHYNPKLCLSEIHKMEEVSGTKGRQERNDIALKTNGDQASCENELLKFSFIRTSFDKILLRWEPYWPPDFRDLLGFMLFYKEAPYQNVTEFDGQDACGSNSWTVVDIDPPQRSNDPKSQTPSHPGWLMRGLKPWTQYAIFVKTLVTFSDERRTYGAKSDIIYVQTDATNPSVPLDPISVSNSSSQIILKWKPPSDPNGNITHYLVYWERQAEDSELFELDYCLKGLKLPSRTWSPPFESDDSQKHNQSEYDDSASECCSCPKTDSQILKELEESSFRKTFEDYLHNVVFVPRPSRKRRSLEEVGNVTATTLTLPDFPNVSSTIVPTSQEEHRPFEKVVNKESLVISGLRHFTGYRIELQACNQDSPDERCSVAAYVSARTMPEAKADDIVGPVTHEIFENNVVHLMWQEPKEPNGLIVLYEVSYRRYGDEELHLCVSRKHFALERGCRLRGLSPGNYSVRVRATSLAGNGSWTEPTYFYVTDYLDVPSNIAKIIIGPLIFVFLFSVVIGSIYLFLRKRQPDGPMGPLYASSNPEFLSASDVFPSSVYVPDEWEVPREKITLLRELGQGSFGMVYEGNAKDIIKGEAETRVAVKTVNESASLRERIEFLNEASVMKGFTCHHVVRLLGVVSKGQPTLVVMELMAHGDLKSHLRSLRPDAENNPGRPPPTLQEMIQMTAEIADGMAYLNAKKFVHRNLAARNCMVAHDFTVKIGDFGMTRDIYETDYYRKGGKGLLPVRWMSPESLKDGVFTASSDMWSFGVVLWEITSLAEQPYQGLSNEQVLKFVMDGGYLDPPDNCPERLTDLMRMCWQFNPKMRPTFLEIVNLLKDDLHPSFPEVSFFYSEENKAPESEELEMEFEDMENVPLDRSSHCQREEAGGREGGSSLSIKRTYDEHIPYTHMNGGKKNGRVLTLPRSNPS
Description: cryo-EM of full-length IR with S597, 5.4 Å. As for the experimental part:
(§2) The cryo-EM grid was prepared by applying 3 μl of the protein samples (6 mg/ml) to glow-discharged Quantifoil R1.2/1.3 300-mesh gold holey carbon grids (Quantifoil, Micro Tools GmbH, Germany). Grids were blotted for 4.0 seconds under 100% humidity at 4° C. before being plunged into the liquid ethane using a Mark IV Vitrobot (FEI). Micrographs were acquired on a Titan Krios microscope (FEI) operated at 300 kV with a K3 direct electron detector (Gatan), using a slit width of 20 eV on a GIF-Quantum energy filter. SerialEM 3.8 was used for the data collection. […] The defocus range was set from 1.6 μm to 2.6 μm. Each micrograph was dose-fractionated to 30 frames with a total dose of about 60 e⁻/Å².

Test [9] deals with T2, full-length mouse insulin receptor, …. Nature of the test: cryo-EM of full-length IR with S597-N20. As for the experimental part:
as §2

T1 sequence (P06213 28-1370 isoform P06213-2 limits assumed): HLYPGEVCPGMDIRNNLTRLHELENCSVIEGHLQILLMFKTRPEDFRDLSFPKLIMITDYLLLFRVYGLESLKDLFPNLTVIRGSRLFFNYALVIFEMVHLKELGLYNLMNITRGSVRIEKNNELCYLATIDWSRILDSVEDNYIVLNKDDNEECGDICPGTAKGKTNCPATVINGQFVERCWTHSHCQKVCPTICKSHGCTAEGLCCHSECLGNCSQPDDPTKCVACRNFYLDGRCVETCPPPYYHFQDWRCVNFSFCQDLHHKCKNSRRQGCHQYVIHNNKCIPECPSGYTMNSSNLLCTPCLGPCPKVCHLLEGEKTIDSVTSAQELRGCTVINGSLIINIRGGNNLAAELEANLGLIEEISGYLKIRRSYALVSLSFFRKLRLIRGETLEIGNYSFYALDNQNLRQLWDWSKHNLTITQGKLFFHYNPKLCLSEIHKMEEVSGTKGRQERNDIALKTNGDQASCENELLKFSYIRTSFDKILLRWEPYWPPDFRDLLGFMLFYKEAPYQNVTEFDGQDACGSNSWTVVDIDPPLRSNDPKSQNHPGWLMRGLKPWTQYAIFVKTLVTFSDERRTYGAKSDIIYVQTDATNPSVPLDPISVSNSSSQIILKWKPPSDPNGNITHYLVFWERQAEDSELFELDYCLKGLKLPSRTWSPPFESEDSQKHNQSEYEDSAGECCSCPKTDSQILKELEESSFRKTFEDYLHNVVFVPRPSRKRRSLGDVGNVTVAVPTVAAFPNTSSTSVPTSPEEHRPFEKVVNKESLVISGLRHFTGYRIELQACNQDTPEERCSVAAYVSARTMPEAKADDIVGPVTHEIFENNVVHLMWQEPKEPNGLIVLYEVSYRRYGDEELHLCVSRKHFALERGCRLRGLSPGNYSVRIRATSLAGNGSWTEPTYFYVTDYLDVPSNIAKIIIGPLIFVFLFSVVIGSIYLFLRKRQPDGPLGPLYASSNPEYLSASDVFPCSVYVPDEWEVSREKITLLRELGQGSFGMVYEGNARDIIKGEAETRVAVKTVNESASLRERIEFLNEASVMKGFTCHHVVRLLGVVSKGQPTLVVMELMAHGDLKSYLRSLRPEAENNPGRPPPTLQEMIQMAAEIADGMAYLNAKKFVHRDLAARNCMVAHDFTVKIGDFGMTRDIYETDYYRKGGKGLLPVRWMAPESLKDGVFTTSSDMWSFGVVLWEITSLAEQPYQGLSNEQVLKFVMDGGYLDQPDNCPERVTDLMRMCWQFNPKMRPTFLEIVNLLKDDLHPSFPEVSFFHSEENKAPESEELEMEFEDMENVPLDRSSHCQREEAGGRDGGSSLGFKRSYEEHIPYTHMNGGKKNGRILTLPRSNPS
T1 sequence (P06213 763-1382 partner limits assumed): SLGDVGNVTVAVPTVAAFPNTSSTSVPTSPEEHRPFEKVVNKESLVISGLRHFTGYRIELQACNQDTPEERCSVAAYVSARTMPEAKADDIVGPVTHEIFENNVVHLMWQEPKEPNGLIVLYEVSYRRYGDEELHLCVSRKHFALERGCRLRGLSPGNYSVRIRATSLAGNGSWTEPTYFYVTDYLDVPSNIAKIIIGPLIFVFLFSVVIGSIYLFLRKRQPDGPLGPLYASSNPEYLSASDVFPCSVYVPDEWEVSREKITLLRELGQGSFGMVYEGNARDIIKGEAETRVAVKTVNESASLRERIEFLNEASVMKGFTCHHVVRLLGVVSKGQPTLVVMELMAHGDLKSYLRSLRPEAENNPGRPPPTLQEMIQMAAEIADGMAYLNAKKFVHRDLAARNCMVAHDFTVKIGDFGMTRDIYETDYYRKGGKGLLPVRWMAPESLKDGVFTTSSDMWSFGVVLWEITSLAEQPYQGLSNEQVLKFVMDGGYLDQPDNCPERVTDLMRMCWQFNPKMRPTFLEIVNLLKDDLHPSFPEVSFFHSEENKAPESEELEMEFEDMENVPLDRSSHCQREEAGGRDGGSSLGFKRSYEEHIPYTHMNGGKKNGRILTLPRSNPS

In the case of “Humulin: Humulin (human insulin), Eli Lilly”, the body weight gain result in [1] was “increased”. In [1] (serum, 4 h fasted mice), the “C-peptide (insulin secretion)” value is reported as “decreased”. Moreover, the “blood glucose levels in ITT” value in test [2] is “lowered”.
For “S597-F27A: S597-component-1 mutant, interrupts the IR L1/S597-component-1 interaction (Ac-SLEEEWAQIECEVYGRGCPSESFYDWAERQL; disulfide 11-18 (inferred))”, the “IR activation (auto-phosphorylation of IR, pY IR)” value (“IR activation” below) in test [3] is “greatly reduced potency”. In test [2], the “blood glucose levels in ITT” value is recorded as “did not reduce” and the “blood glucose in insulin tolerance assays” value was “did not reduce glucose levels, but rather elevated them”.
“S597-N20: N-terminal 20 residues of S597 comprising only component-2 and the linker (Ac-SLEEEWAQIECEVYGRGCPS; disulfide 11-18 (inferred))”: the “IR activation” value in [3] is “greatly reduced potency”. Further, in [2], the “blood glucose levels in ITT” value was “did not reduce” and the “blood glucose in insulin tolerance assays” value is “did not reduce glucose levels, but rather elevated them”. Also, in test [4], the pAKT entry is on record as “did not induce phosphorylation”, the pERK entry was “did not induce phosphorylation” and the “pY IR” value is listed as “did not induce phosphorylation”.
In the case of “S597-W6A: S597-component-2 mutant, disrupts the IR FnIII-1/S597-component-2 interaction (Ac-SLEEEAAQIECEVYGRGCPSESFYDWFERQL; disulfide 11-18 (inferred))”, the “IR activation” value in test [3] is “greatly reduced potency”. In test [2], the “blood glucose levels in ITT” value is on record as “did not reduce” and the “blood glucose in insulin tolerance assays” value is listed as “did not reduce glucose levels, but rather elevated them”.
As to insulin, in test [5], the pAKT level result is reported as “significantly increased” and the pERK level result is recorded as “neither insulin nor S597 had a statistically significant effect”. The “cell viability and growth” value in [6] is “significantly increased”. In addition, in test [4], the pAKT entry was “increased”, the pERK result is on record as “increased” and the “pY IR” value is “increased”. For the same molecule, the “nuclear translocation of SREBP1” value in test [7] is recorded as “stimulated to the same level”.
For insulin-like growth factor 1 [IGF1], in test [6], the “cell viability and growth” value is “significantly increased”.

B1: S597 (peptide)
peptide: Ac-SLEEEWAQIECEVYGRGCPSESFYDWFERQL
modifications: disulfide 11-18 (inferred)
notes: Component-2 (N-terminal helix), linker, component-1 (C-terminal helix); also called full-length S597
On to B1, for which, in [8], the “stoichiometry (S597: IR dimer)” value was determined as 2 S597 per IR dimer.

B2: S597-N20 (peptide)
peptide: Ac-SLEEEWAQIECEVYGRGCPS
modifications: disulfide 11-18 (inferred)
notes: also called S597-component-2; S597-component-2 alone
For the molecule B2, the binding result in test [9] is listed as “binds”.
